Data published in article PMC4048165, “Reaction Kinetics for the Biocatalytic Conversion of Phenazine-1-Carboxylic Acid to 2-Hydroxyphenazine” (PLoS ONE, 2014).

Target: T1, PhzO (Pseudomonas chlororaphis, UniProt E3UVD3)
T1 construct: full-length phzO (1476-bp PCR fragment, about 491 residues) in pET28a, 6-His tag, E. coli BL21, Ni-NTA purified
T1 sequence (E3UVD3 1-491): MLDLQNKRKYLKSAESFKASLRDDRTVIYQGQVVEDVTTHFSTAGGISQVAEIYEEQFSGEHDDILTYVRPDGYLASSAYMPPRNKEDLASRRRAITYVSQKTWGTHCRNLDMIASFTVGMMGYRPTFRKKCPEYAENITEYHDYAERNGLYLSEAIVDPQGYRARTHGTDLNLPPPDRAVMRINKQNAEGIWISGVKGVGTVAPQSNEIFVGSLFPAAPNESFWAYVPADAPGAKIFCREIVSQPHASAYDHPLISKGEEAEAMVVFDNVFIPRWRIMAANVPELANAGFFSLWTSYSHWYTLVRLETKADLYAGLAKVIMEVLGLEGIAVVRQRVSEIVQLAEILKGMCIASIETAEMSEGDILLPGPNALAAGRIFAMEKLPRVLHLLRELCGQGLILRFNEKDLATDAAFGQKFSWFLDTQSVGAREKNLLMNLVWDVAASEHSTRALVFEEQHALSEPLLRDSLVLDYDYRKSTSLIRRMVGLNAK
Test: HPLC detection of 2-OH-PCA and 2-OH-PHZ
Assay type: biochemical
Details: NADP(H), 1 mM Fe3+, PCA 200 mg/L, 0.1 M Tris-HCl; results call the enzyme purified, methods describe crude E. coli extract

O=C(O)c1cccc2nc3ccccc3nc12 [PCA, phenazine-1-carboxylic acid]
HPLC detection of 2-OH-PCA and 2-OH-PHZ: PhzO was sufficient to hydroxylate PCA to produce 2-OH-PHZ in the presence of NADP(H)
